Source: patent US20050019850A1, “Method for identifying fungicidally active compounds based on guanylate kinases” (priority 2003, published 2005)

Target: U. maydis guanylate kinase (Mycosarcoma maydis, UniProt A0A0D1DZ04)
Assay: Determination of the KM value of guanylate kinase for its substrates (Lineweaver/Burk)
Format: biochemical, Ustilago maydis
Conditions: read-out: KM value; FIG. 3, Lineweaver/Burk representation; substrate of guanylate kinase
Description: Lineweaver/Burk representation of the data: 1/Vo=1/Vmax+1/S×(KM/Vmax), wherein Vo is the initial reaction rate, Vmax the maximum conversion rate possible and S the substrate concentration. Vmax and KM can then be read as the intercepts on the horizontal and the vertical axes 1/Vmax and 1/KM, respectively.
Here, pyruvate kinase converts phosphoenolpyruvate into pyruvate, which is then utilised by lactate dehydrogenase for oxidizing NADH to give NAD. The NAD concentration, which increases owing to the coupled reaction, or the NADH concentration, which decreases owing to the coupled reaction, can be measured photospectrometrically by absorption or fluorescence measurement (absorption drops at 340 nm, fluorescence drops at 340 nm (emission at 465 nm)).

Chain of U. maydis guanylate kinase (A0A0D1DZ04 118-213, added parts left off): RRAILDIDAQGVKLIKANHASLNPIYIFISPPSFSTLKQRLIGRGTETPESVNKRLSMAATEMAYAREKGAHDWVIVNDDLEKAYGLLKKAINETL

`Nc1ncnc2c1ncn2[C@@H]1O[C@H](COP(=O)(O)OP(=O)(O)OP(=O)(O)O)[C@@H](O)[C@H]1O` [ATP] gave a Km of 100 µM.

`Nc1nc2c(ncn2[C@@H]2O[C@H](COP(=O)(O)O)[C@@H](O)[C@H]2O)c(=O)[nH]1` [GMP] was tested, and the Km was 40 µM.
